Measurements published in patent US7951950B2, “PGD2 receptor antagonists for the treatment of inflammatory diseases” (Millennium Pharmaceuticals, Inc., priority 2005, dated 2011).

These molecules were tested against T1, cloned human CRTH2 receptor (Homo sapiens, UniProt Q9Y5Y4) (assay: radioligand membrane binding assay: inhibition of [3H] PGD2 binding, Scintillation Proximity Assay). Settings: [3H] PGD2 binding to membranes of HEK-293 cells expressing human CRTH2; SPA.
T1 construct: purchased Biosignal; host or cells: HEK-293 cells stably expressing human CRTH2 and G alpha 16
T1 sequence (Q9Y5Y4 1-395): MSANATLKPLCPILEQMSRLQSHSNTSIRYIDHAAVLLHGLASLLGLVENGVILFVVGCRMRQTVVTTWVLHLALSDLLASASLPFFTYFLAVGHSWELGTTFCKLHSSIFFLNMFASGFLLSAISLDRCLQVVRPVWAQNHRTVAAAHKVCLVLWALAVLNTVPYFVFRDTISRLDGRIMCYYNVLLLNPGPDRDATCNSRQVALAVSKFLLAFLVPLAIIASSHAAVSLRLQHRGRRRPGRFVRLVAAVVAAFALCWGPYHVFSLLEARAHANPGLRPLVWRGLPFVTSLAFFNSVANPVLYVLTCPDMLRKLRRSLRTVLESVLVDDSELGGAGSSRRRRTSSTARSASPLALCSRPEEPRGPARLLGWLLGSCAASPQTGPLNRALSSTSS
Experimental: This radioligand membrane binding assay evaluates the ability of compounds to inhibit [^3H] Prostaglandin D2 (PGD2) binding to the cloned human CRTH2 receptor stably expressed in HEK-293 cells (expressing human CRTh2 receptor and α subunit or the heterotrimeric G protein 16 were prepared by Biosignal Company) using Scintillation Proximity Assay.
A binding buffer containing 50 mM Tris-HCl (pH 7.5), 5 mM MgCl2 and 1 mM EDTA is prepared immediately prior to performing the assay. A bead/membrane solution at twice the final assay concentration comprising membranes (membranes bought from Biosignal) from the HEK-293 cells cloned to express CRTH2 receptor bound to and [^3H] PGD2 at two times the final assay concentration are prepared and stored on ice before adding to wells. Cold PGD2 at twenty times the final assay concentration is prepared and stored on ice before adding to wells defining non-specific binding (NSB) coming plates #3653 are used for this assay.
10 mM stock concentrations of compounds in 100% DMSO are prepared and stored at room temperature. A 10 point concentration response curve is then constructed for each compound, starting at 10 μM (final assay concentration). The compounds are prepared at 40 times final assay concentrations with nine consequent-3-fold dilutions.
0.1 μl of each concentration of compound are added to the appropriate well of the 384 plate and 2 μl of cold PGD2 is added into the wells defining NSB. 20 μl of [3H] PGD2 and then 20 μl of 2× of bead/membrane solution are then added to each well.
The plates are allowed to incubate at room temperature for approximately 2 hours and then counted on Packard Topcount using SPA tritium protocol for 1 minute/well.
The percent inhibition of PGD2 binding (PGD2 used at the KD value or lower) to the HEK-293 cell membranes is determined, the assay is always run as duplicate for n=1 for a total of n=2 and shown below.

Ki, < 10 µM:
CCN(C(=O)[C@H]1C[C@H](C)N(C(=O)c2ccc(OC)cc2)c2ccccc21)c1ccc(C)c(F)c1 (racemic) [Compound 57, (±)-trans-1-(4-Methoxy-benzoyl)-2-methyl-1,2,3,4-tetrahydro-quinoline-4-carboxylic acid ethyl-(3-fluoro-4-methyl-phenyl)-amide]
CCN(C(=O)C1CCN(C(=O)c2ccc(OC)cc2)c2ccccc21)c1ccc(Cl)cc1 (racemic) [Compound 33, (±)-1-(4-Methoxy-benzoyl)-1,2,3,4-tetrahydro-quinoline-4-carboxylic acid (4-chloro-phenyl)-ethyl-amide]
CCN(C(=O)[C@H]1C[C@H](C)N(C(=O)Cc2ccc(OC)cc2)c2ccccc21)c1ccc(Cl)cc1 (racemic) [Compound 2, (±)-trans-1-[2-(4-Methoxy-phenyl)-acetyl]-2-methyl-1,2,3,4-tetrahydro-quinoline-4-carboxylic acid (4-chloro-phenyl)-ethyl-amide]
CCN(C(=O)[C@H]1C[C@H](C)N(C(=O)c2ccc(OC)cc2)c2ccccc21)c1ccc(Cl)c(C(F)(F)F)c1 (racemic) [Compound 11, (±)-trans-1-(4-Methoxy-benzoyl)-2-methyl-1,2,3,4-tetrahydro-quinoline-4-carboxylic acid (4-chloro-3-trifluoromethyl-phenyl)-ethyl-amide]
CCN(C(=O)[C@H]1C[C@H](C)N(C(=O)c2ccc(OC)cc2)c2ccccc21)c1cc(C)on1 (racemic) [Compound 35, (±)-trans-1-(4-Methoxy-benzoyl)-2-methyl-1,2,3,4-tetrahydro-quinoline-4-carboxylic acid ethyl-(5-methyl-isoxazol-3-yl)-amide]
CCN(C(=O)[C@H]1C[C@H](C)N(C(=O)c2ccc(OC)cc2)c2ccccc21)c1ccc(C)c(C(F)(F)F)c1 (racemic) [Compound 50, (±)-trans-1-(4-Methoxy-benzoyl)-2-methyl-1,2,3,4-tetrahydro-quinoline-4-carboxylic acid ethyl-(4-methyl-3-trifluoromethyl-phenyl)-amide]
CCN(C(=O)[C@H]1C[C@H](C)N(C(=O)c2ccc(OC)cc2)c2ccccc21)c1ccc(C(C)C)cc1 (racemic) [Compound 15, (±)-trans-1-(4-Methoxy-benzoyl)-2-methyl-1,2,3,4-tetrahydro-quinoline-4-carboxylic acid ethyl-(4-isopropyl-phenyl)-amide]
CCN(C(=O)[C@H]1C[C@@H](C)N(C(=O)c2ccc(OCCC(C)(C)C(=O)O)cc2)c2ccccc21)c1ccc(Cl)cc1 (racemic) [Compound 76, (±)-cis-4-(4-{4-[(4-Chloro-phenyl)-ethyl-carbamoyl]-2-methyl-3,4-dihydro-2H-quinoline-1-carbonyl}-phenoxy)-2,2-dimethyl-butyric acid]
CCN(C(=O)[C@H]1C[C@H](C)N(C(=O)c2ccc(OC)cc2)c2ccccc21)c1ccccc1C (racemic) [Compound 61, (±)-trans-1-(4-Methoxy-benzoyl)-2-methyl-1,2,3,4-tetrahydro-quinoline-4-carboxylic acid ethyl-o-tolyl-amide]
CCN(Cc1ccc(Cl)cc1)C(=O)[C@H]1C[C@H](C)N(C(=O)c2ccc(OC)cc2)c2ccccc21 (racemic) [Compound 5, (±)-trans-1-(4-Methoxy-benzoyl)-2-methyl-1,2,3,4-tetrahydro-quinoline-4-carboxylic acid (4-chloro-benzyl)-ethyl-amide]
